# Experiment: method code SF, from Hansch, C. & Leo, A. (1987). Log P database [Dataset]. Pomona College Medicinal Chemistry Project.
# Conditions: not given
row,SMILES,logP
1,O=c1[nH]ncc2ccccc12,0.75
2,NC(=O)c1ccc(I)cc1,1.99
3,O=C(O)c1ccsc1,1.5
4,NN=C(c1ccccc1)c1ccccc1,2.79
5,CCOC(=O)N=[N+]([O-])c1ccccc1,2.53
6,COc1ccc(OC(C)=O)cc1,1.54
7,CCOC(=O)C(=Cc1ccccc1)C(=O)OCC,3.13
8,Cc1ccccc1OCC(O)CO (stereo not drawn),1.41
9,CCCCCCCOC(=O)c1ccc(O)cc1,4.83
10,COc1ccc2c(=O)c(C)c(C(C)C)oc2c1,3.39
11,C=CCc1ccccc1,3.23
12,O=c1[nH]c2ccccc2s1,1.76
13,NC(=O)c1ccoc1,0.09
14,CCCC(O)CCC,2.22
15,O=CC=Cc1ccco1,1.15
16,NNc1ncnc2c([C@@H]3O[C@H](CO)[C@@H](O)[C@H]3O)n[nH]c12,-1.42
17,COC(=O)C=Cc1ccccc1,2.62
18,COc1cccc2cccnc12,1.84
19,O=C(/C=C/c1ccccc1)N1CCCCC1,2.74
20,COC(=O)c1cccc(O)c1,1.89
21,O=C(O)COc1ccc(F)c(I)c1,2.42
22,O=[N+]([O-])Cc1ccccc1,1.75
23,CC(=O)C(=Cc1ccc(C)cc1)C(C)=O,2.14
24,CCOC(=O)C(=O)c1cccs1,1.77
25,CN(C)/N=N/c1ccccc1C(=O)NCC#N,1.79

row,SMILES,logP
1,O=C(CCl)Nc1ccc(Cl)c(Cl)c1,3.29
2,CCCOCCC,2.03
3,O=[N+]([O-])c1ccc(OCCn2ccnn2)cc1,1.19
4,CSc1ncnc2c1ncn2[C@@H]1O[C@H](CO)[C@@H](O)[C@@H]1O,0.09
5,CCCS,1.81
6,c1ccc(N2CCOCC2)cc1,1.36
7,CCOC(=O)CNCCCCCSc1c2[nH]cnc2nc[n+]1[O-],0.87
8,COc1cc(/C=N/O)ccc1OCCOC(=O)c1ccc(Cl)cc1,3.92
9,CCN(CC)c1ccc(/N=N/c2ccc(Br)cn2)c(O)c1,4.23
10,COc1ccccc1OC(C)=O,1.38
11,O=C(NCC(O)CO)Nc1ccccc1 (stereo not drawn),0.28
12,O=CNc1nccs1,0.54
13,CC(=O)Nc1ccc(C(C)(C)C)cc1,3.05
14,CCOP(=O)(OCC)Oc1ccc(SC)c(Cl)c1,3.48
15,N#Cc1cccc(C(N)=O)c1,0.52
16,O=c1c2ccccc2sc2ccccc12,3.99
17,CC(=O)Oc1cccc(F)c1,1.74
18,CCC1OC(=O)C(C)C(OC2CC(C)(OC)C(O)C(C)O2)C(C)C(OC2OC(C)CC(N(C)C)C2O)C(C)(O)CC(C)C(=O)C(C)C(OC(C)=O)C1C (stereo not drawn),3.32
19,C[C@@H]1CC[C@H](C)N1C(=O)Nc1ccccc1,2.33
20,Cc1cccc(C)c1[N+](=O)[O-],2.95
21,CCOC(=O)C(=Cc1cccc(Cl)c1)C(=O)OCC,3.49
22,CCOC(=O)CON=Cc1ccc(OCCOC(=O)c2ccccc2OC)c(OC)c1,3.27
23,O=NN(Cc1ccccc1)c1ccccc1,3.38
24,CCC(C)NC(=O)/C=C/c1ccccc1 (stereo not drawn),2.85
25,O=S(=O)(Nc1ccccc1)c1ccccc1,2.58

row,SMILES,logP
1,O=C(NN=Cc1ccccc1)c1ccccc1,2.56
2,COP(=O)(OC)OC,-0.52
3,O=C(O)c1cc(=O)c2c(OCC(O)COc3cccc4oc(C(=O)O)cc(=O)c34)cccc2o1,1.92
4,O=C(COc1ccccc1)Nc1ccccc1,2.73
5,COc1ccc2ncccc2c1,2.2
6,CC1=Nc2ccc(S(=O)(=O)N(C)C)cc2S(=O)(=O)N1,0.32
7,CC(=O)C(C)=O,-1.34
8,CC(=O)Nc1ccc2c(=O)c(C)c(C)oc2c1[N+](=O)[O-],1.61
9,CCCOC=O,0.83
10,CCOC(=O)C(=Cc1ccc(Cl)cc1)C(C)=O,3.04
11,CC(C)n1cc(C(C)(C)C)nc1SSc1nc(C(C)(C)C)cn1C(C)C,4.1
12,Cn1ccc(=O)[nH]c1=O,-1.2
13,O=S1(=O)NC(CCl)=Nc2cc(Cl)ccc21,1.68
14,O=C(NP(=O)(N1CC1)N1CC1)c1cc(I)ccc1I,1.35
15,NC(=O)N/N=C/c1ccccc1,1.27
16,CCOP(=S)(OCC)N1C(=O)c2ccccc2C1=O,3.48
17,CC(=O)c1ccccc1Cl,2.09
18,CCC(C)NC(=O)C(=Cc1ccccc1)OC (stereo not drawn),2.86
19,OCCOCCN1CCN(CCCN2c3ccccc3Sc3ccc(C(F)(F)F)cc32)CC1,4.49
20,CC1CCC(O)CC1 (stereo not drawn),1.79
21,CSc1cccc(/N=N/N(C)C)c1,2.98
22,NC(=O)Nc1cnc2ccccc2n1,1.3
23,NC(=S)c1ccccc1,1.49
24,CC(=C(C#N)C#N)c1ccccc1,2.1
25,CCC(C)c1ccccc1OC(=O)N(C)C (stereo not drawn),3.31

row,SMILES,logP
1,OC(O)C(Cl)(Cl)Cl,0.99
2,CN(N=Nc1ccc(C(N)=O)cc1)C(C)(C)C,2.61
3,CC1CCCC1,3.37
4,C=COCC,1.04
5,Cc1ccncc1,1.22
6,c1ccc(-c2ccc3ccccc3n2)cc1,3.9
7,CCCNCCC,1.73
8,O=C(O)COc1ccccc1-c1ccccc1,2.83
9,NC(=O)c1ccccc1Br,0.73
10,CC(=O)Oc1ccccc1F,1.76
11,COc1ccccc1C=C(C(C)=O)C(C)=O,1.73
12,COC1=C[C@@]23CCCN2CCc2cc4c(cc2[C@@H]3[C@@H]1O)OCO4,0.84
13,Cc1nnc2n1-c1sc(Br)cc1C(c1ccccc1Cl)=NC2,2.79
14,O=[N+]([O-])c1ccc(/C=C/c2cccc(CO)n2)o1,1.37
15,N#CN=[N+]([O-])c1ccc(Cl)cc1,2.33
16,Cc1ccc([N+]([O-])=NC#N)cc1,2.39
17,CN(C)C(=O)Nc1ccc(Br)cc1,2.19
18,COc1cccc2c1C(=O)c1c(O)c3c(c(O)c1C2=O)C[C@@](O)(C(=O)CO)C[C@@H]3O,2.74
19,CS(=O)(=O)NN=Cc1ccccc1,1.2
20,CC(=O)N(C)/N=N/c1ccc(C)cc1,3.23
21,CN(C)S(=O)(=O)c1ccccc1,1.35
22,CN(C)C(=O)c1ccoc1,0.24
23,Cc1ccc(CO)cc1,1.59
24,COc1cc(OC)c(OC)cc1CC(C)N (stereo not drawn),1.74
25,Cc1ccccc1OC(=O)N(C)C,1.86

# Same assay, conditions: pH 1.0
row,SMILES,logD
1,O=C(O)c1ccccc1S,2.39

# Same assay, conditions: pH 2.0
row,SMILES,logD
1,O=C(O)c1ccc[nH]1,0.85

# Same assay, conditions: pH 2.2
row,SMILES,logD
1,c1ccc(Cc2nn[nH]n2)cc1,1.36

# Same assay, conditions: pH 3.0
row,SMILES,logD
1,Cn1c(SCC2=C(C(=O)O)N3C(=O)C(NC(=O)Cc4cccs4)C3SC2)nnc(O)c1=O (stereo not drawn),-0.52

# Same assay, conditions: pH 4.6
row,SMILES,logD
1,CCN(CC)/N=N/c1nc[nH]c1C(N)=O,0.78

# Same assay, conditions: pH 7.0
row,SMILES,logD
1,COc1cccc(S(C)(=O)=O)c1,0.86
2,CC(=O)c1ccc(C#N)cc1,1.22
3,CCOc1cccc(NC(C)=O)c1,1.82

# Same assay, conditions: pH 7.4
row,SMILES,logD
1,CCN(CC)c1c(C)n(-c2ccccc2)c(=O)n(C)c1=O,2.19
2,CO/N=C/CCc1ccccc1,2.14
3,CN(C)/N=C/CCc1ccccc1,2.05
4,Sc1ncnc2nc[nH]c12,0.01
5,Cc1c(NCC(C)C)c(=O)n(-c2ccccc2)c(=O)n1C,1.48

# Same assay, conditions: pH 8.0
row,SMILES,logD
1,OC(c1ccccc1)c1ccccn1 (stereo not drawn),1.52

# Same assay, conditions: pH 13.0
row,SMILES,logD
1,CC(=O)Nc1cccc(OCc2cccc(/N=C(\N)N=C(N)N)c2)c1,1.82
2,CN(C)CC(O)c1ccccc1 (stereo not drawn),1.54
3,CCCCOc1cccc(N2C(N)=NC(N)=NC2(C)C)c1,2.03
4,CC1(C)N=C(N)N=C(N)N1c1ccc(I)cc1,1.39

# Reference: the SangsterLogP compilation
